Experimental data from BindingDB's records for patent US20250326769 (Nuvalent, 2025).

How the values were obtained:
[1] = target: ALK tyrosine kinase receptor [I1171N,D1203N] (UniProt Q9UM73, D1203N/I1171N); assay: Biochemical Kinase Assay
Description: (§1) First, 250 nL of compound dissolved in DMSO (100-fold of the desired concentration) was dispensed into a 384-well plate. A 12.5 μL substrate solution containing ATP (2 mM) and fluorogenic phosphorylation substrate AQT0101 ([…] for ALK and ROS, AssayQuant) or AQT0104 (26 μM for TRKB, AssayQuant) in buffer (50 mM HEPES pH 7.5, […], 0.5 mM EGTA, 10 mM MgCl2) was added and mixed thoroughly. Then, a 12.5 μL kinase solution containing ALK (1.5 nM, Carna, 08-518), ALK I1171N/D1203N (4 nM, SignalChem, custom-made), ROS1 (0.6 nM, Carma, 08-163), ROS1-G2032R (0.5 nM, SignalChem, R14-121BG), or TRKB-wt (1.5 nM, SignalChem, N17-11G) kinase domains in buffer ([…] pH 7.5, 0.01% Brij-[…], 0.4 mg/mL BSA, 0.5 mM EGTA, and 10 mM MgCl2) was added and mixed thoroughly. The plate was sealed and read by SpectraMax Paradigm at λ=485 nm every 2 minutes for 120 minutes at 30° C. Initial rates of reaction (v) were calculated from the change in fluorescence intensity over time during the initial, linear portion of the reaction.

[2] = target: BDNF/NT-3 growth factors receptor (Homo sapiens, UniProt Q16620); assay: Biochemical Kinase Assay
BDNF/NT-3 growth factors receptor, sequence (Q16620 whole entry): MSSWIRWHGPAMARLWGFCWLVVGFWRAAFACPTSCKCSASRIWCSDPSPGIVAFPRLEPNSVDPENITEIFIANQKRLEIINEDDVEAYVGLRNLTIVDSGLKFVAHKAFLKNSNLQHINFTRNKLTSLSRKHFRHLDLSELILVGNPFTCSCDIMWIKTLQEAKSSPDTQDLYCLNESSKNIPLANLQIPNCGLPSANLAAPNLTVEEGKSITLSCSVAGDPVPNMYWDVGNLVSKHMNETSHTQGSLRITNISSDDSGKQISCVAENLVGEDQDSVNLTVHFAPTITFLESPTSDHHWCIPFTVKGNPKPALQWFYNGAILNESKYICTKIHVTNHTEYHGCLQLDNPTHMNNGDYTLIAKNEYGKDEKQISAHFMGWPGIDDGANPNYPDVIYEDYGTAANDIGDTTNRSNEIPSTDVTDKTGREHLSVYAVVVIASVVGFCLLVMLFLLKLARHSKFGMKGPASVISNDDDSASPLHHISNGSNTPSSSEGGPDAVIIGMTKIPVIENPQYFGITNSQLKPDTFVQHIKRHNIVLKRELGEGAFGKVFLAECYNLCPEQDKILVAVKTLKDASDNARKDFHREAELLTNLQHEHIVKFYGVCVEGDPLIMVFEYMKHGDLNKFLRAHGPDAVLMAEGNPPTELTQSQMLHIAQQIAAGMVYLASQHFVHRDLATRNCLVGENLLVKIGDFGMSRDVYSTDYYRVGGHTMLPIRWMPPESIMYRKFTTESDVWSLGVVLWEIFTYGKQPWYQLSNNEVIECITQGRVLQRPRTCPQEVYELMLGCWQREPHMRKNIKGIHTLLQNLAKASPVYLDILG
Description: as §1

ALK tyrosine kinase receptor [I1171N,D1203N], sequence (Q9UM73 19-1620 I1171N/D1203N limits assumed): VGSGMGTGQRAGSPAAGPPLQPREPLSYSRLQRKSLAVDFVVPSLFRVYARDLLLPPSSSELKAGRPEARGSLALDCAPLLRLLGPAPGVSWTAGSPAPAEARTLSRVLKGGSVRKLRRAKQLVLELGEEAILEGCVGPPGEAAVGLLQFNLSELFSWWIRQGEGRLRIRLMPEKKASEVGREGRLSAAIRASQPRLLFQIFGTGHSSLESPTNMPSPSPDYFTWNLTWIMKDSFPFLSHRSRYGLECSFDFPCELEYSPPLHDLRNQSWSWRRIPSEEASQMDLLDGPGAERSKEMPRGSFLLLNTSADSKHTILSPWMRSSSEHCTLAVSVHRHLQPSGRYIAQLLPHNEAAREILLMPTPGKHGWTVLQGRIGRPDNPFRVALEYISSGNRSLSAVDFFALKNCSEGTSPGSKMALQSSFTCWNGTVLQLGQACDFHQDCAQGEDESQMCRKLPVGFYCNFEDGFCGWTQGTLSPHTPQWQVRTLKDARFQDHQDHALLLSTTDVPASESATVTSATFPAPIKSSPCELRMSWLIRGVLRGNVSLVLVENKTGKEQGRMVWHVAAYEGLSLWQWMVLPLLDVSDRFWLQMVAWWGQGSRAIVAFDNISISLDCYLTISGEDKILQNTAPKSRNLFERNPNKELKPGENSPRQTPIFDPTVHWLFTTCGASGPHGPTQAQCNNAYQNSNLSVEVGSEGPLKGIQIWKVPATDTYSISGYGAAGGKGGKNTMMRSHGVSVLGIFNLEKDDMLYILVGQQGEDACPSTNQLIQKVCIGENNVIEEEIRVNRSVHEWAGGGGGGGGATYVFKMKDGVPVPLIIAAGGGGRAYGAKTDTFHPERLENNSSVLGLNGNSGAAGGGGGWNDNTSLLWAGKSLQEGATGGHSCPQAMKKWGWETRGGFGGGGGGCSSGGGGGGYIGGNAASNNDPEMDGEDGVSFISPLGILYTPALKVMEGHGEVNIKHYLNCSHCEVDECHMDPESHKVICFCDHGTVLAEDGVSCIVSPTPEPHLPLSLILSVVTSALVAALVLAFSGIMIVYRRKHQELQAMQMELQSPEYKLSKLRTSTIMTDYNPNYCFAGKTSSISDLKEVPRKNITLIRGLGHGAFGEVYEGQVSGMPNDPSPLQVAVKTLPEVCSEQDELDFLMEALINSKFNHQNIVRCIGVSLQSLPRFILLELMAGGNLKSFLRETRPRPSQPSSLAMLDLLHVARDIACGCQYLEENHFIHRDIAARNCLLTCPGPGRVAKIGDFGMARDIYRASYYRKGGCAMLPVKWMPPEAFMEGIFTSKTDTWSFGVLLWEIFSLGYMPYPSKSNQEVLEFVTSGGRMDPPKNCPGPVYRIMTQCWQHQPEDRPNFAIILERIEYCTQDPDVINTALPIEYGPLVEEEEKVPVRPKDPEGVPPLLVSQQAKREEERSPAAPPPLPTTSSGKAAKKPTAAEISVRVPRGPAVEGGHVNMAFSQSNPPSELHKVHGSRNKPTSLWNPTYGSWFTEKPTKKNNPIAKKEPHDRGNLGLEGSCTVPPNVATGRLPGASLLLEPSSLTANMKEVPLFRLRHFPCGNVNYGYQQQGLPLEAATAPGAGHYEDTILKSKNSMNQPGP

Compound: C[C@H]1Oc2cc(cnc2N)-c2c(c(C(N)=O)nn2CC2CC2)Cc2cccnc2-c2ccc(F)cc21 [US20250326769, Example 6]
- Ki [1]: < 50 nM

Compound: CCn1ncc2c1-c1cnc(N)c(c1)O[C@H](C)c1cc(F)ccc1-c1ncccc1O2 [US20250326769, Example 14]
- Ki [2]: < 50 nM
- Ki [1]: < 50 nM

Compound: CC(C)N(C)C(=O)c1nn(CC2CC2)c2c1Cc1cn(C)nc1-c1ccc(F)cc1[C@@H](C)Oc1cc-2cnc1N [US20250326769, Example 37]
- Ki [2]: > 500 nM
- Ki [1]: < 50 nM

Compound: CCN(C)C(=O)c1nn(CC2CC2)c2c1Cc1cn(C)nc1-c1ccc(F)cc1[C@@H](C)Oc1cc-2cnc1N [US20250326769, Example 38]
- Ki [1]: < 50 nM

Compound: Cc1cc2n(n1)-c1c(F)cc(F)cc1[C@@H](C)Oc1cc(cnc1N)-c1c(c(C(=O)N(C)C)nn1CC1CC1)C2 [US20250326769, Example 44]
- Ki [1]: < 50 nM
